Test results reported in US11504075B2, “System, methods, and devices for calculating hypoxic fraction and equilibration rate of small molecular weight tracers using dynamic imaging” (UNIVERSITY HEALTH NETWORK, priority 2017, dated 2022).
Values joined by “and” are separate entries in the source; they are usually repeats but may differ in a detail not shown here. Equal values may be shown once.

Legend:
[1] = test system: pancreatic ductal adenocarcinoma tumours; assay: Dynamic FAZA-PET imaging with two-tissue compartment model analysis in patients with pancreatic ductal adenocarcinoma; type: in vivo, human (patients)
Source text: In an example experiment, the pharmacokinetics of FAZA in twenty patients with pancreatic ductal adenocarcinoma (PDAC) were modeled, applying principles of diffusive equilibration to interpret transport data calculated from a standard two-tissue compartment model.
Data was taken from twenty patients with biopsy-confirmed pancreatic ductal adenocarcinoma and FAZA-PET scans. Dynamic PET imaging scans were acquired over one hour following injection of FAZA. The one hour time-activity curves (TAC1) were each binned into thirty-four frames: twelve ten-second frames, followed by eight thirty-second frames, followed by seven two-minute frames, followed by seven five-minute frames. Patients returned for a static PET scan at two hours. CT scans used for co-registration were taken at the beginning of the dynamic and static PET scans.
PET activity data was obtained for regions of interest (ROIs) contoured using co-registered CT images. Tumour ROIs were contoured by a radiologist using the CT scan at two hours. This was co-registered manually to the initial CT scan and the two CT ROI sets were co-registered to the dynamic and static PET scans. In order to minimize effects resulting from high liver uptake of FAZA, aorta ROIs were contoured from the same range of PET/CT slices (along the cranial-caudal axis) as the tumour ROIs. At the level of the pancreas, the aorta is between 1.5 and 2 cm in diameter; to minimize partial volume effects, ROIs in the aorta were restricted to 0.75 cm in diameter and combined so that at least twenty-five PET voxels (3.9×3.9×3.3 mm^3 each) were imaged.
Dynamic PET TACs of FAZA were analyzed using the two-tissue compartment model:
Here, the concentration of tracer in the extravascular space of an imaged region has been partitioned into an unbound, diffusing component Cd as well as a component Cb that is bound by hypoxia. CIn is the “input” function, which was taken to be the imaged tracer concentration in the aorta, as described above. As noted earlier, k1 and k2 are the vascular influx and efflux coefficients and k3 is the tracer trapping rate. The total tracer concentration in an imaged region is C(t)=vbCIn(t)+(1−vb)[Cd(t)+Cb(t)], (5) where vb is the volume fraction occupied by blood in the region of interest. The above model was fitted to both the one-hour TACs (TAC1) as well as the combined two-hour TAC (TAC2) comprising the one-hour TACs plus static scans at two hours (in part to assess co-registration errors, which should be greater for TAC2). Coefficients (vb, k1, k2, and k3) were determined by minimizing
[formula] where Cmodel(ti) are the model activity values [Eqs. (3)-(5)] and Cdata(ti) are the measured values acquired during the N discrete time frames; N=34 for TAC1 and N=35 for TAC2. […] Equation 6 can be minimized with Cmodel(ti) calculated using trapezoidal integration.
An important tissue transport quantity is the distribution volume:
It represents the volume fraction of an imaged ROI in which tracer initially fills; i.e., rapidly equilibrates in. Patlak's formula,
To account for the unexpected correlations between k3 and vd, a model (shown schematically in FIG. 23) may be used in which an imaged voxel is comprised of two tissue types: one in which tracer reaches diffusive equilibration rapidly (with concentration C^(r)), and one in which it reaches equilibrium slowly (with concentration C^(s)): Cd(t)=vsCd^(s)+(1−vs)Cd^(r)(t). (11)
The factors of 1−vs and vs here ensure detailed balance amongst the compartments. kb is the binding rate due to hypoxia and keq represents the equilibration rate in the regions of slow-equilibration. This may be on the order of (0.1→1) hr-^1 when equilibration is driven by diffusion; see Eq. (2).
To distinguish kb and Keq in k3, voxel-scale k3 values were arranged into bins based on distribution volume values. […]

[2] = in most tissue; FAZA and similarly sized molecules; cited from earlier work

- mean (population-averaged) equilibration rate keq in slow-equilibrating regions ([1]; all twenty patients, standard deviation 0.29 hrs^−1 across patients): 0.44 h⁻¹ and ~0.44 ± 0.29 h⁻¹
- equilibration rate keq ([1]; patient 1, fit of voxel-scale Keq to Eq. (18)): 0.45 h⁻¹
- equilibration rate keq ([1]; patient 2, fit of voxel-scale Keq to Eq. (18)): 0.52 h⁻¹
- average distribution volume of tumour ([1]; resected tumour exhibiting abundant apical mucin (FIG. 12 right)): 0.76
- average distribution volume of tumour ([1]; resected tumour exhibiting little mucin (FIG. 12 left)): 0.92
- vascular influx rate k1, population average of tumour-scale values ([1]; twenty PDAC patients): ~0.3 min⁻¹
SMILES: O=[N+]([O-])c1nccn1[C@H]1O[C@H](CF)[C@@H](O)[C@@H]1O [FAZA, fluoroazomycinarabinoside]
- diffusivity D [2]: ~10 μm^2/s
